# Assay results taken from patent US8188126B2, “Imidazolic compounds and use thereof as alpha-2 adrenergic receptors” (Pierre Fabre Medicament, priority 2002, dated 2012).
# Tests used:
# human alpha-2A receptor = target: T1, human alpha-2A receptor (Homo sapiens, UniProt P08913); assay: Bonds with alpha-2 adrenergic receptors ([3H]RX 821002 binding, C6 cell membranes); conditions: 2 nM [3H]RX 821002, C6 cell membranes expressing human alpha-2A receptor, 30 min at 25° C.; read-out: Affinity (pKi) Alpha-2A (converted)
# T1 construct: expressed in transfected cells; host or cells: C6 cells (rat glioma, by own knowledge) continuously expressing the human receptor; membranes
# T1 sequence (P08913 1-465): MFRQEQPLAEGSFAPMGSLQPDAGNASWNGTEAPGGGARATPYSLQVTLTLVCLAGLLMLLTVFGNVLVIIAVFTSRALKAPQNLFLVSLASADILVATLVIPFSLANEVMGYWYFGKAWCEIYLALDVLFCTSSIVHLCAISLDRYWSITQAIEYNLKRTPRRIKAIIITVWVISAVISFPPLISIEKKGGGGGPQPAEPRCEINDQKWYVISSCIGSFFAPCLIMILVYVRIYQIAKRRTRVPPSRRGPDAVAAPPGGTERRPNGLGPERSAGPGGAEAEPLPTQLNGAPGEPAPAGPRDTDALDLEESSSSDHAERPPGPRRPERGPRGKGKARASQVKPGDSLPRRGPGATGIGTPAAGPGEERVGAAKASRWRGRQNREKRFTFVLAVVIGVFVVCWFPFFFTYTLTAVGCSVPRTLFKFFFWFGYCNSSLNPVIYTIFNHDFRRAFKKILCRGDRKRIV
# Description: Bonds with Alpha-2 Adrenergic Receptors
# The C6 cell membranes continuously expressing the human alpha-2A receptor are prepared in Tris-HCl (pH=7.6). The bond tests are conducted with 2 nM [3H]RX 821002. The incubation medium consists of 0.4 ml of cell membranes (10 μg of proteins), 0.05 ml of radioligand and 0.05 ml of test product or phentolamine (10 μM) to determine the non-specific bond. The reaction is stopped after 30 minutes of incubation at 25° C. by adding 3 ml of Tris-HCl, 50 mM (pH=7.6), cold, followed by filtration on Whatman filters, GF/B using a Brandel. The Ki values are calculated according to the equation Ki=IC50/(1+C/Kd) where C is the concentration and Kd the dissociation constant, pKi=−log Ki. Under these conditions, the compounds according to the invention appear to have a strong affinity for human alpha-2A adrenergic subtype receptors.
# [1] = target: T2, human alpha-2A adrenergic receptors (Homo sapiens, UniProt P08913); assay: Measurement of alpha-2 adrenergic receptor activation (GTPγS response on membrane preparations); assay type: biochemical; conditions: expressed with reference to (−)-adrenaline (maximum stimulation = +100), read-out: Intrinsic activity % stimulated
# T2 construct: expressed in transfected cells; host or cells: membrane preparations
# T2 sequence (P08913 1-465): T1 sequence (P08913 1-465)
# Description: Measurement of Alpha-2 Adrenergic Receptor Activation
# The GTPγS responses are produced on membrane preparations in 20 mM HEPES (pH=7.4) with 30 [mu]M of GDP, 100 mM of NaCl, 3 mM of MgCl2 and 0.2 mM of ascorbic acid. The maximum GTPγS stimulation is determined in the presence of […] of (−)-adrenaline and calculated with respect to the basal GTPγS response. The results are expressed with reference to adrenaline or RX 811059. Under these conditions, the compounds according to the invention are distinguished from the majority of the compounds according to the prior art in that they behave more like reverse agonists on human alpha-2A adrenergic receptors (see table above).
# [2] = test system: scopolamine-induced memory deficiency; assay: Scopolamine-induced memory deficiency test (passive avoidance); assay type: in vivo; conditions: rats
# From the text: Scopolamine-Induced Memory Deficiency Test. Scopolamine has amnesiac properties in animals and humans. In this way, its administration to healthy humans induces certain symptoms similar to those observed in Alzheimer's disease. Therefore, the scopolamine-induced memory deficiency is used as an experimental pharmacological model of the memory disorders observed in the course of this condition. Scopolamine reduces acquisition, memorisation and recall capacities in a passive avoidance test in rats. It consists of measuring the hesitancy, after learning, shown by an animal to enter a dark compartment in which it receives a low-intensity electric shock. The administration of scopolamine does away with this hesitancy and the compounds studied inhibit the effect of scopolamine. The experimental protocol used is described in Psychopharmacol. 1992, 106, 26-30.
# rats = assay: Morris water maze test (spatial memory, probe trial); assay type: in vivo; conditions: for Effect on spatial memory processes (in words): i.p. after training sessions of days 1 and 2; for Increase in spatial memory performance: probe trial on day 3 after two training days
# From the text: Morris Water Maze—Basic Principles of the Test
# In the animal test paradigm, rats are placed into a circular pool containing water and are required to find an escape platform just beneath the surface of the water and therefore invisible to the animal. The performances are dependent on the number of training days.
# Morris Water Maze—Detailed Protocol
# The water maze test was adapted from the original protocol of Morris (1981). The test apparatus consisted of a circular fibreglass tank (130 cm in diameter, 50 cm deep). The pool was filled to a height of 30 cm with water at room temperature (21-22° C.). The pool was divided into four virtual quadrants (Q1, Q2, Q3 and Q4) of equal surface area. A transparent escape platform made of Plexiglas (10 cm in diameter, 29 cm high) was placed in a fixed location in the tank, 1 cm below the water surface. […] Many extra-maze cues surrounded the maze and were available for the rats to use in locating the escape platform. On the training trials, the platform remained in a constant location in the centre of one quadrant (Q4) equidistant from the centre and the edge of the pool. Each rat received three trials/day for 1, 2, 3 or 4 days. Each training trial involved placing the rat into the pool facing the wall at one of the 3 quadrants Q1, Q2 and Q3. A different starting point was randomly used on each trial. The rats were allowed to swim freely until they found the escape platform. The latency to find the hidden platform was recorded and used as a measure of acquisition of the task. […] The intertrial interval was 20 sec during which the rat remained on the platform. Twenty hours after the last training trial, the platform was removed from the pool, the rats were allowed to swim for 60 sec in the pool and the time spent in the target quadrant Q4 (the quadrant in which the platform was during training) was recorded. The percent time spent in the previous training quadrant Q4 was used as an index of memory. The higher the percentage, the better the memory was considered to be (Yavich L., Sirviö J., Haapalinna A., Puumala T., Koivisto E., Heinonen E., Riekkinen P. Jr. (1996) The systemic administration of tacrine or selegeline facilitate spatial learning in aged Fisher 344 rats. J Neural Transm 103: 619-626).
# Pharmacological Treatment and Statistical Analysis
# Rats received two training days and were tested in a probe trial, without platform, on the third day. […] Results were expressed as the mean±standard error of the mean (SEM) of performance (latency to find the platform and percentage time spent in target quadrant) and were analysed by one-way analysis of variance, with drug treatment as the factor, followed by a 2-tailed Student t-test (GB-STAT, Friedman P. (1991) GB-STAT: computer aided statistics & graphics, Ver 3.0. Dynamic Microsystems, Inc., Silver Spring). In the probe trial, without platform, results were also compared to chance performance (25%) by a 1-sample Student t-test (GB-STAT, Friedman, 1991). Results obtained with compounds I-1 (Example 4), (−)-1-1 (Example 6), (+)-1-1 (Example 5) and 1-2 (Example 7): […]
Compound,Ki (human alpha-2A receptor) [nM],Emax [1] [%],Scopolamine memory deficiency % aplitude of effect ([2]; dose 2.5 mg/kg i.p.),Effect on spatial memory processes (in words) (rats),Increase in spatial memory performance (rats; 0.63 and 2.5 mg/kg i.p. immediately after training sessions),Increase in spatial memory performance (rats; 2.5 mg/kg i.p. immediately after training sessions) [%],Scopolamine memory deficiency % aplitude of effect ([2]; dose 0.16 mg/kg i.p.),Increase in spatial memory performance (rats; 0.16 mg/kg i.p. immediately after training sessions) [%],Scopolamine memory deficiency % aplitude of effect ([2]; dose 0.63 mg/kg i.p.),Increase in spatial memory performance (rats; 2.54 mg/kg i.p. immediately after training sessions) [%]
"c1ccc2c(c1)C1CC1(c1cnc[nH]1)C21CC1 (single isomer, unassigned; (-)) [(-)-1-1, (−)-4-(6-spiro-1′-cyclopropane-1a,6-dihydro-1H-cyclopropa[a]inden-6a-yl)-1H-imidazole]",2.51,37,+138%,promnesic effect,up to 48%,,,,,
"c1ccc2c(c1)C1CC1(c1cnc[nH]1)C21CC1 (stereo not drawn) [Compound 1-1, 4-(6-spiro-1′-cyclopropane-1a,6-dihydro-1H-cyclopropa[a]inden-6a-yl)-1H-imidazole]",0.316,14,+122%,promnesic effect,,46,,,,
"COc1cc2c(cc1OC)C(=O)C(CC1CCN(Cc3ccccc3)CC1)C2 (stereo not drawn) [Donepezil, reference compound]",,,,,,,+67%,,,
"c1ccc2c(c1)C1CC1(c1c[nH]cn1)C21CC1 (single isomer, unassigned; (+)) [(+)-1-1, (+)-4-(6-spiro-1′-cyclopropane-1a,6-dihydro-1H-cyclopropa[a]inden-6a-yl)-1H-imidazole]",,,,promnesic effect,,,,17,,
"C[C@@H]1[C@H]2c3ccccc3C3(CC3)[C@@]12c1c[nH]cn1 (relative stereo) [Compound 1-2, 4-(1-exo-methyl-6-spiro-1′-cyclopropane-1a,6-dihydro-1H-cyclopropa[a]inden-6a-yl)-1H-imidazole]",7.94,7,,promnesic effect,,,,,+201%,42
"Fc1ccc2c(c1)C1(CC1)C1(c3c[nH]cn3)CC21 (stereo not drawn) [Compound 1-5, 4-(4-fluoro-6-spiro-t-cyclopropane-1a,6-dihydro-1H-cyclopropa[a]inden-6a-yl)-1H-imidazole]",0.316,-10,,,,,,,+241%,
